Laboratory results published in patent US20230086099A1, “COMBINATION THERAPY FOR TREATMENT OF CANCER AND CANCER METASTASIS” (ONA Therapeutics, S.L., priority 2020, published 2023).

Legend:
[1] = test system: Detroit oral cancer cells; assay: Detroit oral cancer cells inoculated in NSG mice: anti-CD36 antibody with cisplatin; format: in vivo; conditions: lung metastases from oral cancer, H&E staining of the lungs; FIGS. 2, 3A-3B
Protocol: (§1) Studies on the combination of anti-CD36 antibody with cisplatin were performed in NSG mice (immuno-deficient) males and females (first experiment mice directly bought, follow up experiments in house breeding) All mice were inoculated with commercially available oral cancer cells Ab dosing was always done daily i.p.
(§2) Two types of oral cancer cell lines were inoculated: • Detroit: “medium” metastatic and very large primary tumor • FaDu: “very strong” metastatic and small primary tumor
(§3) 50,000 or 100,000 cancer cells were inoculated. The starting time of treatment was the amount of days after inoculation of the cancer cells Ab treatment starts.

OVCAR-3 cells = assay: OVCAR-3 orthotopic mouse model of ovarian cancer; format: in vivo, NSG mice
Protocol: Studies of the effects of the combination of ONA-0 anti-CD36 antibody and cisplatin on ovarian cancer were performed in NSG mice (immuno-deficient). The studies included only female mice. All mice were inoculated with commercially available OVCAR-3 (ATCC) cancer cells. OVCAR-3 cells were derived from a human progressive adenocarcinoma of the ovary (i.e., from an ovarian cancer). Prior to inoculation, the OVCAR-3 cells were cultured in a humidified incubator at 37° C. with 5% CO2, and were grown in RPMI-1640 supplemented with 5 μg ml^−1 penicillin/streptomycin, 0.01 mg/ml bovine insulin and 20% FBS (GIBCO). For each mouse, a piece of an OVCAR-3 xenograft was implanted orthotopically. Treatment of the implanted mice began 23 days after implantation with the OVCAR-3 tumor pieces. Inoculated mice were divided into one of two treatment groups: cisplatin injection control (n=9) or cisplatin in combination with ONA-0 treatment (n=8). Antibody treatments were administered via intraperitoneal (i.p.) injection daily at a dose of 3 mg/kg and cisplatin treatments were administered via intraperitoneal (i.p.) injection twice per week at a dose of 2 mg/kg (FIG. 7B). Mice were sacrificed at the end of the treatment period. Upon sacrifice, organs and tissues were collected for performance of immunohistochemistry analysis.

[2] = test system: FaDu cell line (oral cancer cell line); assay: FaDu oral cancer cells inoculated in NSG mice: lymph node metastases, ONA-0 with cisplatin; format: in vivo
Protocol: as §1, §2, §3

N.N.[Cl][Pt][Cl] [cisplatin]
lung metastases, size and number [1]: reduces the size of metastases | SR positive area (collagenous and fibrotic areas) of primary tumors (OVCAR-3 cells; Sirius red staining, FIG. 9C): 27.45% | primary tumor weight, average (OVCAR-3 cells; at sacrifice, FIG. 9B): 0.468 grams | percent necrosis of primary tumors (OVCAR-3 cells; histology, blinded quantification by a pathologist, FIG. 9C): approximately 14.2% | percentage of mice with metastasis in the liver (OVCAR-3 cells; macroscopic, visual inspection, FIG. 8A): 11% | percentage of animals with metastasis in the peritoneal wall (OVCAR-3 cells; macroscopic, visual inspection, ONA-0 3 mg/kg i.p. daily, cisplatin 2 mg/kg i.p. twice per week, FIG. 8A): 22%

B1: ONA-0: anti-CD36 antibody ONA-0 (also known as ONA-0-v1; as described in U.S. Patent Application No. 63/117,529) (antibody)
heavy: QVQLKQSGADLVRPGASVKLSCKASGYTFTDYYINWVKQRPGQGLEWIARIYPGSGNTYYNEKFKGKATLTAEKSSSTAYMQLSSLTSEDSAVYFCARGIGGGFGMDYWGQGTSVTVSSESARNPTIYPLTLPPVLCSDPVIIGCLIHDYFPFGTMNVTWGKSGKDITTVNFPPALASGGRYTMSSQLTLPAVECPEGESVKCSVQHDSNPVQELDVNCSPTPPPPITIPSCQPSLSLQRPALEDLLLGSDASITCTLNGLRNPEGAAFTWEPSTGKDAVQKKAAQNSCGCYSVSSVLPGCAERWNSGASFKCTVTHPESGTLTGTIAKVTVNTFPPQVHLLPPPSEELALNELLSLTCLVRAFNPKEVLVRWLHGNEELSPESYLVFEPLKEPGEGATTYLVTSVLRVSAETWKQGDQYSCMVGHEALPMNFTQKTIDRLSGKPTNVSVSVIMSEGDGICY
light: SIVMTQTPKFLLVSAGDRITITCKASQSVSDDVAWYQQKPGQSPKLLIYYASNRYTGVPDRFTGSGYGTDFTFTISTVQAEDLAVYFCQQDYSSPLTFGAGTKLEIKRADAAPTVSIFPPSSEQLTSGGASVVCFLNNFYPKDINVKWKIDGSERQNGVLNSWTDQDSKDSTYSMSSTLTLTKDEYERHNSYTCEATHKTSTSPIVKSFNRNEC
efficacy on lymph node metastases ([2]; study of FIGS. 4A-4E): demonstrates efficacy on lymph node metastases | efficacy on lymph node metastasis ([2]; study of FIGS. 5A-5E and 6A-6B): effective as a monotherapy
